Laboratory results taken from paper PMC4721142, “Randomized controlled studies on the efficacy of antiarthritic agents in inhibiting cartilage degeneration and pain associated with progression of osteoarthritis in the rat” (Arthritis Research & Therapy, 2016).
Where two headings read alike, the source gives them in different places.

Experiments:
MMP-13 = MMP-13 ELISA on supernatants of TNF-α-treated chondrogenic pellets; assay type: cell-based, human
MIA rat model of OA = test: MIA trial 1 histopathology; assay type: in vivo; details: necropsy day 29, n = 3; for Histopathology, cartilage score: 0-5 scale
Experimental: Following functional testing in the first and second MIA trials, femurs were fixed in paraformaldehyde, processed, sectioned, stained with hematoxylin and eosin or Safranin O at Premier Laboratory (Longmont, CO, USA), and analyzed by a veterinary pathologist. For MIA trial 1, sections were evaluated for the percentage area of chondrocyte necrosis and/or proteolytic degeneration using a 5-point scale with 0 = none; 1 being <10 %; 2 = 10–30 %; 3 = 30–60 %; 4 = 60–90 %; and 5 being >90 %. Other characteristics of inflammation, proliferation, and integrity of the synovium, subchondral bone, and articular cartilage were scored as normal, minimal, mild, moderate, marked, or increased or decreased when severity was not graded. MIA trial 2 was measured similarly and then cross-checked according to the methods used for MIA trial 3 (see text below).
The histopathology for the first MIA trial was performed by Premier Laboratories (Dr. Michael Hawes, APS, Pathologist). Treatments were masked during the assessment. Chondrocyte necrosis and proteolytic degeneration of the femurs were scored on a 5 point scale with 0 = None; 1 = <10%; […]
proteoglycan content (safranin O staining), synovial membrane inflammation and proliferation, subchondral bone, and articular cartilage (as indicated in Supplementary methods). Characteristics within these categories were scored as normal, minimal, mild, moderate, marked, or +/- when severity was not graded. […]
Degenerative changes occur by 3-6 weeks post-surgery in the MMT/MCLT model and are of greatest severity on the outer 1/3 of the tibial cartilage. Less severe degenerative changes are observed in the middle and inner 1/3 of the tibial cartilage. Osteophytes progressively increase in size and are ultimately quite large (medial tibia). By 12 months nearly all rats show total cartilage loss. Due to the rapid progression of cartilage degeneration, protective effects of therapeutics are not always apparent in the outer 1/3 of the tibial cartilage, although zonal analysis may reveal effects of treatment in the middle and inner 1/3. Substantial subchondral and epiphyseal bone changes occur in the medial tibia subjacent to the areas of greatest lesion severity. […]
Scores were based on the […]
percentage of area affected within the zone.
Cartilage degeneration in the tibia was scored on a five point scale for each zone, collagen damage across the medial tibial plateau was measured by total width for each grade damage. Cartilage degeneration in the tibia was scored none to severe (numerical values 0-5) for each zone (area defined by micrometer) using the following criteria: […]

[1] = rat, in vivo
Experimental: Using the MMT/MCLT model, a number of the same agents were tested via systemic delivery and
using incapacitance /weight bearing as a measure of pain.

[2] = MIA trial 2 clinical observations; assay type: in vivo, rat; details: tacrolimus i.p. daily

Structure (SMILES)	Effective range against MMP-13 (MMP-13)	Histopathology, bone (MIA rat model of OA)	Histopathology, cartilage score (MIA rat model of OA)	Concentration inhibiting MMP-13 (MMP-13; > = failed to inhibit up to highest concentration tested)	Clinical observation [1]	Clinical observation [2]
Clc1cccc(Cl)c1N=C1NCCN1 [Clonidine]	Not effective	Severe	4.7	–	–	–
CC1(C)O[C@@H]2C[C@H]3[C@@H]4C[C@H](F)C5=CC(=O)C=C[C@]5(C)[C@@]4(F)[C@@H](O)C[C@]3(C)[C@]2(C(=O)CO)O1 [Fluocinolone, Fluocinolone Acetonide]	–	Minimal	3.0	–	–	–
C=CC[C@@H]1/C=C(\C)C[C@H](C)C[C@H](OC)[C@H]2O[C@@](O)(C(=O)C(=O)N3CCCC[C@H]3C(=O)O[C@H](/C(C)=C/[C@@H]3CC[C@@H](O)[C@H](OC)C3)[C@H](C)[C@@H](O)CC1=O)[C@H](C)C[C@@H]2OC [Tacrolimus]	–	–	–	50 µM	blood in the stool	blood in the stool
